According to patent publication US20080194545A1, “ANTIMICROBIAL COMPOSITIONS AND METHODS OF USE” (TRIUS THERAPEUTICS, priority 2007, published 2008):

biological target: S. Aureus MetRS (Staphylococcus aureus, UniProt Q5HII6); assay: MetRS inhibition (coupling of radiolabeled methionine to tRNAMet, TCA-precipitable counts); type: biochemical; details: purified MetRS enzyme
Description: The inhibition of MetRS activity may be monitored through use of in vitro bio-chemical assays through use of purified MetRS protein. Synthesis of a MetRS polypeptide can readily be accomplished through use of any of the various art-known techniques. For instance, a MetRS polypeptide can be synthesized chemically in vitro or recombinant DNA methods which are well known to those skilled in the art can be used to construct expression vectors containing MetRS coding sequences, and appropriate transcriptional/translational control signals. These methods include, for example, in vitro recombinant DNA techniques, synthetic techniques and in vivo recombination/genetic recombination. Alternatively, RNA capable of encoding target gene protein sequences can be chemically synthesized through use of synthesizers, for example.
The compounds of the present invention may also be evaluated for the ability to inhibit MetRS activity through use of known methods that measure the MetRS-dependent coupling of methionine to its cognate tRNA. In the assay, radiolabeled methionine, tRNA^Met and purified MetRS enzyme are incubated under appropriate conditions in the presence and absence of test compound and the amount of TCA-precipitable counts, which reflects the amount of methionine coupled to tRNA^Met, is determined.

Row | IC50 [µM] | SMILES
1 | < 0.05 | COc1cc(Cl)c(Oc2cc(NCc3nc4ccccc4[nH]3)nc(N3CCN(C(=O)N4CCOCC4)CC3)n2)cc1OC [Compound 6.134]
2 | < 0.05 | COc1cc(Cl)c(Oc2cc(NCc3nc4ccccc4[nH]3)nc(N3CCC(CN4CCCC4=O)CC3)n2)cc1OC [Compound 6.145]
3 | < 0.05 | COc1ccc(Oc2cc(N(C)C)nc(NCc3nc4ccccc4[nH]3)n2)c(Cl)c1 [Compound 5.10]
4 | < 0.05 | COc1cc(Cl)c(Oc2cc(NCc3nc4ccccc4[nH]3)nc(N3CCN(C(=O)CNc4nccs4)CC3)n2)cc1OC [Compound 6.126]
5 | < 0.05 | COc1cc(Cl)c(Oc2cc(NCc3nc4ccccc4[nH]3)nc(N3CCC(N4CCOCC4)CC3)n2)cc1OC [Compound 6.138]
6 | < 0.05 | COc1cc(Cl)c(Oc2cc(NCc3nc4ccccc4[nH]3)nc(N3CCN(Cn4ccnc4C)CC3)n2)cc1OC [Compound 6.143]
7 | < 0.05 | COc1cc(Cl)c(Oc2cc(NCc3nc4ccccc4[nH]3)nc(N3CCN(C(=O)C4CC4)CC3)n2)cc1OC [Compound 6.88]
8 | < 0.05 | COc1cc(Cl)c(Oc2cc(NCc3nc4ccccc4[nH]3)nc(N3CCN(C(C)=O)CC3)n2)cc1OC [Compound 6.55]
9 | < 0.05 | COc1ccc(Oc2cc(N3CCN(c4ncccn4)CC3)nc(NCc3nc4ccccc4[nH]3)n2)c(Cl)c1 [Compound 5.70]
10 | < 0.05 | COc1ccnc(N2CCN(c3nc(NCc4nc5ccccc5[nH]4)cc(Oc4cc(OC)c(OC)cc4Cl)n3)CC2)n1 [Compound 6.96]
11 | < 0.05 | COc1cc(Cl)c(Oc2cc(NCc3nc4ccccc4[nH]3)nc(N3CCN(c4ncccn4)CC3)n2)cc1OC [Compound 6.90]
12 | < 0.05 | COc1ccc(Oc2cc(NCc3nc4ccccc4[nH]3)nc(N3CCN(C(C)=O)CC3)n2)c(Cl)c1 [Compound 6.19]

Continued, compound first:

Row | SMILES | IC50 [µM]
13 | COc1ccc(Oc2cc(NCc3nc4ccccc4[nH]3)nc(N3CCNC(=O)C3)n2)c(Cl)c1 [Compound 6.30] | < 0.05
14 | COc1cc(Cl)c(Oc2cc(NCc3nc4ccccc4[nH]3)nc(N3CCN(c4ccccn4)CC3)n2)cc1OC [Compound 6.91] | < 0.05
15 | COc1cc(Cl)c(Oc2cc(NCc3nc4ccccc4[nH]3)nc(N3CCOCC3)n2)cc1OC [Compound 6.86] | < 0.05
16 | COc1cc(Cl)c(Oc2cc(NCc3nc4ccccc4[nH]3)nc(N3CCN(CCN4CCCC4)CC3)n2)cc1OC [Compound 6.142] | < 0.05
17 | COc1cc(Cl)c(Oc2cc(NCc3nc4ccccc4[nH]3)nc(N3CCN(C(=O)N4CCCC4)CC3)n2)cc1OC [Compound 6.144] | < 0.05
18 | COc1cc(Cl)c(Oc2cc(NCc3nc4ccccc4[nH]3)nc(N3CCN(CCN4CCOCC4)CC3)n2)cc1OC [Compound 6.140] | < 0.05
19 | COc1cc(Cl)c(Oc2cc(NCc3nc4ccccc4[nH]3)nc(N3CCN(c4ncncn4)CC3)n2)cc1OC [Compound 6.105] | < 0.05
20 | COc1ccc(Oc2cc(NCc3nc4ccccc4[nH]3)nc(N3CCN(C(=O)C4CCCO4)CC3)n2)c(Cl)c1 (centres unmarked) [Compound 6.61] | < 0.05
21 | O=C1CN(c2cc(Oc3ccc(Cl)cc3Cl)nc(NCc3nc4ccccc4[nH]3)n2)CCN1 [Compound 5.37] | < 0.05
22 | COc1ccc(Oc2cc(NCc3nc4ccccc4[nH]3)nc(N3CCN(c4ncccn4)CC3)n2)c(Cl)c1 [Compound 6.45] | < 0.05

tested on: S. aureus; assay: Antibacterial activity, minimal inhibitory concentration (MIC) against S. aureus; type: cell-based; details: Staphylococcus aureus
Description: Antibacterial activity as measured by the minimal inhibitory concentrations (MIC) and minimal bactericidal concentrations of compounds are well known (see., e.g., National Committee for Clinical Laboratory Standards 2000 Performance standards for antimicrobial disk susceptibility tests: approved standard, 7th ed. M2-A7, vol. 20, no. 1, Committee for Clinical Laboratory Standards, Wayne, Pa.)
In vitro testing for antibacterial activity may be accomplished through use of a whole-cell bacterial growth inhibition assay. For example, an […] assay identifies a substance that inhibits bacterial growth. Microtiter plates are prepared with serial dilutions of the test compound, adding to the preparation a given amount of growth substrate, and providing a preparation of bacteria. Inhibition of bacterial growth is determined, for example, by observing changes in optical densities of the bacterial cultures. Inhibition of bacterial growth is determined, for example, by comparing (in the presence and absence of a test compound) the rate of growth or the absolute growth of bacterial cells. Inhibition includes a reduction of one of the above measurements by at least 20%.

Row | MIC [µg/mL] | SMILES
23 | ≤ 8 | COc1cc(Cl)c(Oc2cc(NCc3nc4ccccc4[nH]3)nc(N3CCN(C(=O)N4CCOCC4)CC3)n2)cc1OC [Compound 6.134]
24 | ≤ 8 | COc1cc(Cl)c(Oc2cc(NCc3nc4ccccc4[nH]3)nc(N3CCC(CN4CCCC4=O)CC3)n2)cc1OC [Compound 6.145]
25 | ≤ 8 | COc1ccc(Oc2cc(N(C)C)nc(NCc3nc4ccccc4[nH]3)n2)c(Cl)c1 [Compound 5.10]
26 | ≤ 8 | COc1cc(Cl)c(Oc2cc(NCc3nc4ccccc4[nH]3)nc(N3CCN(C(=O)CNc4nccs4)CC3)n2)cc1OC [Compound 6.126]
27 | ≤ 8 | COc1cc(Cl)c(Oc2cc(NCc3nc4ccccc4[nH]3)nc(N3CCC(N4CCOCC4)CC3)n2)cc1OC [Compound 6.138]
28 | ≤ 8 | COc1cc(Cl)c(Oc2cc(NCc3nc4ccccc4[nH]3)nc(N3CCN(Cn4ccnc4C)CC3)n2)cc1OC [Compound 6.143]
29 | ≤ 8 | COc1cc(Cl)c(Oc2cc(NCc3nc4ccccc4[nH]3)nc(N3CCN(C(=O)C4CC4)CC3)n2)cc1OC [Compound 6.88]
30 | ≤ 8 | COc1cc(Cl)c(Oc2cc(NCc3nc4ccccc4[nH]3)nc(N3CCN(C(C)=O)CC3)n2)cc1OC [Compound 6.55]
31 | ≤ 8 | COc1ccc(Oc2cc(N3CCN(c4ncccn4)CC3)nc(NCc3nc4ccccc4[nH]3)n2)c(Cl)c1 [Compound 5.70]
32 | ≤ 8 | COc1ccnc(N2CCN(c3nc(NCc4nc5ccccc5[nH]4)cc(Oc4cc(OC)c(OC)cc4Cl)n3)CC2)n1 [Compound 6.96]
33 | ≤ 8 | COc1cc(Cl)c(Oc2cc(NCc3nc4ccccc4[nH]3)nc(N3CCN(c4ncccn4)CC3)n2)cc1OC [Compound 6.90]
34 | ≤ 8 | COc1ccc(Oc2cc(NCc3nc4ccccc4[nH]3)nc(N3CCN(C(C)=O)CC3)n2)c(Cl)c1 [Compound 6.19]

The next lines start with the compound.

Row | SMILES | MIC [µg/mL]
35 | COc1ccc(Oc2cc(NCc3nc4ccccc4[nH]3)nc(N3CCNC(=O)C3)n2)c(Cl)c1 [Compound 6.30] | ≤ 8
36 | COc1cc(Cl)c(Oc2cc(NCc3nc4ccccc4[nH]3)nc(N3CCN(c4ccccn4)CC3)n2)cc1OC [Compound 6.91] | ≤ 8
37 | COc1cc(Cl)c(Oc2cc(NCc3nc4ccccc4[nH]3)nc(N3CCOCC3)n2)cc1OC [Compound 6.86] | ≤ 8
38 | COc1cc(Cl)c(Oc2cc(NCc3nc4ccccc4[nH]3)nc(N3CCN(CCN4CCCC4)CC3)n2)cc1OC [Compound 6.142] | ≤ 8
39 | COc1cc(Cl)c(Oc2cc(NCc3nc4ccccc4[nH]3)nc(N3CCN(C(=O)N4CCCC4)CC3)n2)cc1OC [Compound 6.144] | ≤ 8
40 | COc1cc(Cl)c(Oc2cc(NCc3nc4ccccc4[nH]3)nc(N3CCN(CCN4CCOCC4)CC3)n2)cc1OC [Compound 6.140] | ≤ 8
41 | COc1cc(Cl)c(Oc2cc(NCc3nc4ccccc4[nH]3)nc(N3CCN(c4ncncn4)CC3)n2)cc1OC [Compound 6.105] | ≤ 8
42 | COc1ccc(Oc2cc(NCc3nc4ccccc4[nH]3)nc(N3CCN(C(=O)C4CCCO4)CC3)n2)c(Cl)c1 (centres unmarked) [Compound 6.61] | ≤ 8
43 | O=C1CN(c2cc(Oc3ccc(Cl)cc3Cl)nc(NCc3nc4ccccc4[nH]3)n2)CCN1 [Compound 5.37] | ≤ 8
44 | COc1ccc(Oc2cc(NCc3nc4ccccc4[nH]3)nc(N3CCN(c4ncccn4)CC3)n2)c(Cl)c1 [Compound 6.45] | ≤ 8
